From patent publication US6737383B1, “Herbicidal oxadiazolidines” (priority 1999, dated 2004)

Legend:
bedstraw = experiment: Test B pre/postemergence bedstraw; type: in vivo, Galium aparine
Method in brief: (§1)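 Test chemicals in a non-phytotoxic solvent mixture with surfactant were sprayed preemergence onto planted seeds and postemergence onto plants 2 to 18 cm tall (1- to 4-leaf stage). After twelve to sixteen days in a greenhouse, injury was visually rated against untreated controls from 0 (no effect) to 10 (complete control).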

blackgrass = experiment: Test B pre/postemergence blackgrass; type: in vivo, Alopecurus myosuroides
Method in brief: as §1

surinam grass = experiment: Test B pre/postemergence surinam grass; type: in vivo, Brachiaria decumbens
Method in brief: as §1

cocklebur = experiment: Test B pre/postemergence cocklebur; type: in vivo, Xanthium strumarium
Method in brief: as §1

corn = experiment: Test B pre/postemergence corn; type: in vivo, Zea mays
Method in brief: as §1

crabgrass = experiment: Test B pre/postemergence crabgrass; type: in vivo, Digitaria sanguinalis
Method in brief: as §1

pigweed = experiment: Test B pre/postemergence pigweed; type: in vivo, Amaranthus retroflexus
Method in brief: as §1

rape = experiment: Test B pre/postemergence rape; type: in vivo, Brassica napus
Method in brief: as §1

soybean = experiment: Test B pre/postemergence soybean; type: in vivo, Glycine max
Method in brief: as §1

sugar beet = experiment: Test B pre/postemergence sugar beet; type: in vivo, Beta vulgaris
Method in brief: as §1

velvetleaf = experiment: Test B pre/postemergence velvetleaf; type: in vivo, Abutilon theophrasti
Method in brief: as §1

wheat = experiment: Test B pre/postemergence wheat; type: in vivo, Triticum aestivum
Method in brief: as §1

wild oat = experiment: Test B pre/postemergence wild oat; type: in vivo, Avena fatua
Method in brief: as §1

purple nutsedge = experiment: Test B pre/postemergence purple nutsedge; type: in vivo, Cyperus rotundus
Method in brief: as §1

[1] = Postemergence, Rate 125 g/ha, scale of 0 to 10 where 0 is no effect and 10 is complete control
[2] = Preemergence, Rate 62 g/ha, scale of 0 to 10 where 0 is no effect and 10 is complete control
[3] = Preemergence, Rate 125 g/ha, 0 is no effect, 10 is complete control
[4] = Preemergence, Rate 250 g/ha, scale 0 to 10, 0 is no effect, 10 is complete control
[5] = Preemergence, Rate 500 g/ha, scale 0 to 10 (0 no effect, 10 complete control)
[6] = Rate 62 g/ha, Postemergence, scale of 0 to 10 where 0 is no effect and 10 is complete control
[7] = Rate 250 g/ha, Postemergence, scale 0 to 10, 0 is no effect, 10 is complete control
[8] = Rate 500 g/ha, Postemergence, scale 0 to 10

CC1CCCCC1n1c(=O)on(C(=O)N(c2ccc(F)cc2)C(C)C)c1=O (stereo not drawn) [Compound 161]
Bedstraw plant response rating (bedstraw; [1]): 3 | Bedstraw plant response rating (bedstraw; [2]): 0 | Bedstraw plant response rating (0 to 10 scale) (bedstraw; [3]): 0 | Bedstraw plant response rating (bedstraw; [4]): 0 | Bedstraw plant response rating (bedstraw; [5]): 0 | Bedstraw plant response rating (bedstraw; [6]): 0 | Plant response rating, Bedstraw (bedstraw; [7]): 4 | Bedstraw plant response rating (bedstraw; [8]): 4 | Blackgrass plant response rating (blackgrass; [1]): 0 | Blackgrass plant response rating (blackgrass; [2]): 3 | Blackgrass plant response rating (blackgrass; [4]): 7 | Blackgrass plant response rating (blackgrass; [5]): 9 | Blackgrass plant response rating (blackgrass; [6]): 0 | Plant response rating, Blackgrass (blackgrass; [7]): 3 | Blackgrass plant response rating (blackgrass; [8]): 4 | B. signalgrass plant response rating (surinam grass; [1]): 0 | B. signalgrass plant response rating (surinam grass; [2]): 0 | B. signalgrass plant response rating (0 to 10 scale) (surinam grass; [3]): 0 | B. signalgrass plant response rating (surinam grass; [4]): 5 | B. signalgrass plant response rating (surinam grass; [5]): 5 | B. signalgrass plant response rating (surinam grass; [6]): 0 | Plant response rating, B. signalgrass (surinam grass; [7]): 2 | B. signalgrass plant response rating (surinam grass; Rate 500 g/ha, Postemergence, scale 0 to 10, 0 no effect, 10 complete control): 7 | Cocklebur plant response rating (cocklebur; [1]): 0 | Cocklebur plant response rating (cocklebur; [2]): 0 | Cocklebur plant response rating (0 to 10 scale) (cocklebur; [3]): 0 | Cocklebur plant response rating (cocklebur; [4]): 0 | Cocklebur plant response rating (cocklebur; [5]): 0 | Cocklebur plant response rating (cocklebur; [6]): 0 | Plant response rating, Cocklebur (cocklebur; [7]): 0 | Cocklebur plant response rating (cocklebur; [8]): 3 | Corn plant response rating (corn; [1]): 0 | Corn plant response rating (corn; [2]): 0 | Corn plant response rating (0 to 10 scale) (corn; [3]): 0 | Corn plant response rating (corn; [4]): 0 | Corn plant response rating (corn; [5]): 0 | Corn plant response rating (corn; [6]): 0 | Plant response rating, Corn (corn; [7]): 0 | Corn plant response rating (corn; [8]): 0 | Crabgrass plant response rating (crabgrass; [1]): 2 | Crabgrass plant response rating (crabgrass; [2]): 4 | Crabgrass plant response rating (0 to 10 scale) (crabgrass; [3]): 8 | Crabgrass plant response rating (crabgrass; [4]): 9 | Crabgrass plant response rating (crabgrass; [5]): 9 | Crabgrass plant response rating (crabgrass; [6]): 0 | Plant response rating, Crabgrass (crabgrass; [7]): 7 | Crabgrass plant response rating (crabgrass; [8]): 9 | Redroot pigweed plant response rating (pigweed; [1]): 0 | Redroot pigweed plant response rating (pigweed; [2]): 0 | Redroot pigweed plant response rating (0 to 10 scale) (pigweed; [3]): 0 | Redroot pigweed plant response rating (pigweed; [4]): 4 | Redroot pigweed plant response rating (pigweed; [5]): 10 | Redroot pigweed plant response rating (pigweed; [6]): 0 | Plant response rating, Redroot pigweed (pigweed; [7]): 4 | Redroot pigweed plant response rating (pigweed; [8]): 5 | Rape plant response rating (rape; [1]): 0 | Rape plant response rating (rape; [2]): 0 | Rape plant response rating (0 to 10 scale) (rape; [3]): 0 | Rape plant response rating (rape; [4]): 0 | Rape plant response rating (rape; [5]): 3 | Rape plant response rating (rape; [6]): 0 | Plant response rating, Rape (rape; [7]): 0 | Rape plant response rating (rape; [8]): 4 | Soybean plant response rating (soybean; [1]): 2 | Soybean plant response rating (soybean; [2]): 0 | Soybean plant response rating (0 to 10 scale) (soybean; [3]): 0 | Soybean plant response rating (soybean; [4]): 0 | Soybean plant response rating (soybean; [5]): 0 | Soybean plant response rating (soybean; [6]): 2 | Plant response rating, Soybean (soybean; [7]): 4 | Soybean plant response rating (soybean; [8]): 4 | Sugarbeets plant response rating (sugar beet; [1]): 2 | Sugarbeets plant response rating (sugar beet; [2]): 0 | Sugarbeets plant response rating (0 to 10 scale) (sugar beet; [3]): 0 | Sugarbeets plant response rating (sugar beet; [4]): 0 | Sugarbeets plant response rating (sugar beet; [5]): 0 | Sugarbeets plant response rating (sugar beet; [6]): 0 | Plant response rating, Sugarbeets (sugar beet; [7]): 4 | Sugarbeets plant response rating (sugar beet; [8]): 7 | Velvetleaf plant response rating (velvetleaf; [2]): 0 | Velvetleaf plant response rating (0 to 10 scale) (velvetleaf; [3]): 0 | Velvetleaf plant response rating (velvetleaf; [4]): 0 | Velvetleaf plant response rating (velvetleaf; [5]): 0 | Plant response rating, Velvetleaf (velvetleaf; [7]): 2 | Velvetleaf plant response rating (velvetleaf; [8]): 6 | Wheat plant response rating (wheat; [2]): 0 | Wheat plant response rating (0 to 10 scale) (wheat; [3]): 0 | Wheat plant response rating (wheat; [4]): 0 | Wheat plant response rating (wheat; [5]): 2 | Plant response rating, Wheat (wheat; [7]): 0 | Wheat plant response rating (wheat; [8]): 0 | Wild oats plant response rating (wild oat; [2]): 0 | Wild oats plant response rating (0 to 10 scale) (wild oat; [3]): 0 | Wild oats plant response rating (wild oat; [4]): 3 | Wild oats plant response rating (wild oat; [5]): 6 | Plant response rating, Wild oats (wild oat; [7]): 0 | Wild oats plant response rating (wild oat; [8]): 0 | Nutsedge plant response rating (purple nutsedge; [1]): 0 | Nutsedge plant response rating (purple nutsedge; [2]): 0 | Nutsedge plant response rating (0 to 10 scale) (purple nutsedge; [3]): 0 | Nutsedge plant response rating (purple nutsedge; [4]): 0 | Nutsedge plant response rating (purple nutsedge; [5]): 0 | Nutsedge plant response rating (purple nutsedge; [6]): 0 | Plant response rating, Nutsedge (purple nutsedge; [7]): 0 | Nutsedge plant response rating (purple nutsedge; [8]): 0
